Test results: article PMC6941952, “A homogeneous bioluminescent immunoassay to probe cellular signaling pathway regulation” (Communications Biology, 2020)
“And” between values parts separate entries of the source, which are not always exact repeats. Equal values may be shown once. Read-outs that look alike come from different tables or passages of the source.

Target: T1, estrogen receptors (ER) (Homo sapiens, UniProt P03372)
T1 sequence (P03372 1-595): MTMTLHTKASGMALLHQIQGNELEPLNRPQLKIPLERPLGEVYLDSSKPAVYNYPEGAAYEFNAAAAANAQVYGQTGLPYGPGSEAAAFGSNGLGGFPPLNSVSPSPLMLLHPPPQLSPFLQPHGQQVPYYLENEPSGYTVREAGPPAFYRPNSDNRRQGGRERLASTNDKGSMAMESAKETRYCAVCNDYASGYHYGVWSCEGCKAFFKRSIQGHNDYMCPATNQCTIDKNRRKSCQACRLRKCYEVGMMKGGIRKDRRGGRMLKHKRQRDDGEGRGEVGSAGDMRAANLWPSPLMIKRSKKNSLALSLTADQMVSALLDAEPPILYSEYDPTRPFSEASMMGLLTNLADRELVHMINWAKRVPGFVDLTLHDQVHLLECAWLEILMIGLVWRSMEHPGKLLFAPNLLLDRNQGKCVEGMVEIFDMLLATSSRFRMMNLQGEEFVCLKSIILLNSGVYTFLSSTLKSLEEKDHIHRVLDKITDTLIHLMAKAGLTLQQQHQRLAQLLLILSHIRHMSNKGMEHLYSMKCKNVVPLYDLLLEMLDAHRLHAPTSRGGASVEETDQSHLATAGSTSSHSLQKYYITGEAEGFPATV
Details: 4 h; for Total ER protein (%) / protein (%) ER: replicate
Method: Prior to NanoBiT Cell-Based Immunoassay, 50,000 cells were seeded in 160 µl of complete growth media per well of a 96-well plate and incubated overnight. […] If necessary, the cell culture media were replaced with serum-free media after the cells were stably adherent on the plate and incubated overnight. To treat cells with activators or inhibitors, medium was changed to 30 µl of medium containing inhibitors. If activation of a specific pathway is needed, the cells were stimulated with 10 µl of medium containing activators. To lyse the cells, 10 µl of lysis buffer containing 0.1% digitonin diluted in 1X immunoassay buffer with protease and phosphatase inhibitors was added and the plates were mixed vigorously for 20 min. Then, 50 µl of an antibody mix containing two primary antibodies against the target protein and NanoBiT detecting antibodies (0.3 µl each per well), diluted in 1X immunoassay buffer was added to the lysates. The plates were incubated at 23 °C for 90 min, followed by the addition of 25 µl of Nano-Glo® reagent consisting of Nano-Glo® Luciferase Assay Substrate mixed with 1X immunoassay buffer. Luminescence was measured using a plate-reading luminometer.
All 96-well assay plates were read using a GloMax® 96 Microplate Luminometer from Promega. The instrument was set to 0.5 s integration time. In order to obtain net change of signal, the reagent background values (signal from the well containing all reagent except primary antibodies) were subtracted from the sample values. To plot and analyze the data, Microsoft Excel and GraphPad Prism® Software were used. IC50 values were determined by using a nonlinear regression fit to a sigmoidal dose response (variable slope).

[1] = Fulvestrant 0.0976562 nM, MCF-7, Fig 7c
[2] = Fulvestrant 0.195312 nM, MCF-7, Fig 7c
[3] = Fulvestrant 0.390625 nM, MCF-7, Fig 7c
[4] = Fulvestrant 0.78125 nM, MCF-7, Fig 7c
[5] = Fulvestrant 1.5625 nM, MCF-7, Fig 7c
[6] = Fulvestrant 3.125 nM, MCF-7, Fig 7c
[7] = Fulvestrant 6.25 nM, MCF-7, Fig 7c
[8] = Fulvestrant 25 nM, MCF-7, Fig 7c
[9] = Fulvestrant 50 nM, MCF-7, Fig 7c
[10] = Fulvestrant 100 nM, MCF-7, Fig 7c

Structure (SMILES): C[C@]12CC[C@@H]3c4ccc(O)cc4C[C@@H](CCCCCCCCC[S+]([O-])CCCC(F)(F)C(F)(F)F)[C@H]3[C@@H]1CC[C@@H]2O (some centres unmarked) [Fulvestrant]
- Average Total ER protein (%) (0.0976562 nM, MCF-7, Fig 7b): 100%
- Raw data ER (0.0976562 nM, MCF-7, Fig 7b): 1203000 and 1328000
- Subtract reagent background ER (0.0976562 nM, MCF-7, Fig 7b): 1167700 and 974100 and 1096600
- Total ER protein (%) (0.0976562 nM, MCF-7, Fig 7b): 102.1% and 102.0%
- Raw data ER (0.195312 nM, MCF-7, Fig 7b): 1310000 and 1183000 and 1306000
- Subtract reagent background ER (0.195312 nM, MCF-7, Fig 7b): 1076600 and 955300 and 1077400
- Total ER protein (%) (0.195312 nM, MCF-7, Fig 7b): 94.2% and 100.2%
- Average Total ER protein (%) (0.390625 nM, MCF-7, Fig 7b): 88%
- Raw data ER (0.390625 nM, MCF-7, Fig 7b): 1176000 and 1121000
- Subtract reagent background ER (0.390625 nM, MCF-7, Fig 7b): 945500 and 891700 and 1008700
- Total ER protein (%) (0.390625 nM, MCF-7, Fig 7b): 82.7% and 87.9% and 93.8%
- Average Total ER protein (%) (0.78125 nM, MCF-7, Fig 7b): 73%
- Raw data ER (0.78125 nM, MCF-7, Fig 7b): 1017000 and 962500 and 1057000
- Subtract reagent background ER (0.78125 nM, MCF-7, Fig 7b): 788000 and 733700 and 828700
- Total ER protein (%) (0.78125 nM, MCF-7, Fig 7b): 68.9% and 72.3% and 77.1%
- Average Total ER protein (%) (1.5625 nM, MCF-7, Fig 7b): 52%
- Raw data ER (1.5625 nM, MCF-7, Fig 7b): 787000 and 772400 and 799700
- Subtract reagent background ER (1.5625 nM, MCF-7, Fig 7b): 564400 and 548300 and 571400
- Total ER protein (%) (1.5625 nM, MCF-7, Fig 7b): 49.4% and 54.1% and 53.2%
- Average Total ER protein (%) (3.125 nM, MCF-7, Fig 7b): 36%
- Raw data ER (3.125 nM, MCF-7, Fig 7b): 594200 and 628300
- Subtract reagent background ER (3.125 nM, MCF-7, Fig 7b): 405200 and 370300 and 399100
- Total ER protein (%) (3.125 nM, MCF-7, Fig 7b): 35.4% and 36.5% and 37.1%
- Average Total ER protein (%) (6.25 nM, MCF-7, Fig 7b): 29%
- Raw data ER (6.25 nM, MCF-7, Fig 7b): 540300 and 521900
- Subtract reagent background ER (6.25 nM, MCF-7, Fig 7b): 294500 and 313200
- Total ER protein (%) (6.25 nM, MCF-7, Fig 7b): 27.5% and 29.0% and 29.1%
- Average Total ER protein (%) (25 nM, MCF-7, Fig 7b): 23%
- Raw data ER (25 nM, MCF-7, Fig 7b): 474000 and 455500 and 481300
- Subtract reagent background ER (25 nM, MCF-7, Fig 7b): 248500 and 229500 and 255100
- Total ER protein (%) (25 nM, MCF-7, Fig 7b): 21.7% and 22.6% and 23.7%
- Average Total ER protein (%) (50 nM, MCF-7, Fig 7b): 22%
- Raw data ER (50 nM, MCF-7, Fig 7b): 467500 and 453000 and 467700
- Subtract reagent background ER (50 nM, MCF-7, Fig 7b): 244000 and 227100 and 240600
- Total ER protein (%) (50 nM, MCF-7, Fig 7b): 21.3% and 22.4%
- Average Total ER protein (%) (100 nM, MCF-7, Fig 7b): 21%
- Raw data ER (100 nM, MCF-7, Fig 7b): 455900 and 441400 and 453000
- Subtract reagent background ER (100 nM, MCF-7, Fig 7b): 231900 and 220300 and 227600
- Total ER protein (%) (100 nM, MCF-7, Fig 7b): 20.3% and 21.7% and 21.2%
- Average ER protein (%) [1]: 104.6%
- Raw data ER [1]: 1438000 and 1444000 and 1315000
- Subtract reagent background ER [1]: 1210700 and 1216700 and 1087700
- protein (%) ER [1]: 106.1% and 108.4% and 99.4%
- Average ER protein (%) [2]: 107.5%
- Raw data ER [2]: 1431000 and 1445000 and 1414000
- Subtract reagent background ER [2]: 1204100 and 1218100 and 1187100
- protein (%) ER [2]: 105.5% and 108.5% and 108.4%
- Average ER protein (%) [3]: 98.2%
- Raw data ER [3]: 1290000 and 1346000 and 1340000
- Subtract reagent background ER [3]: 1063550 and 1119550 and 1113550
- protein (%) ER [3]: 93.2% and 99.7% and 101.7%
- Average ER protein (%) [4]: 82.3%
- Raw data ER [4]: 1111000 and 1176000
- Subtract reagent background ER [4]: 884650 and 927650 and 949650
- protein (%) ER [4]: 77.5% and 82.6% and 86.7%
- Average ER protein (%) [5]: 59.5%
- Raw data ER [5]: 890700 and 898000 and 891300
- Subtract reagent background ER [5]: 663400 and 670700 and 664000
- protein (%) ER [5]: 58.2% and 59.7% and 60.7%
- Average ER protein (%) [6]: 41.1%
- Raw data ER [6]: 677900 and 688400 and 691000
- Subtract reagent background ER [6]: 452050 and 462550 and 465150
- protein (%) ER [6]: 39.6% and 41.2% and 42.5%
- Average ER protein (%) [7]: 31.0%
- Raw data ER [7]: 573300 and 576800 and 566100
- Subtract reagent background ER [7]: 351400 and 340700
- protein (%) ER [7]: 30.5% and 31.3% and 31.1%
- Average ER protein (%) [8]: 24.2%
- Raw data ER [8]: 499600 and 500900 and 484100
- Subtract reagent background ER [8]: 275200 and 276500 and 259700
- protein (%) ER [8]: 24.1% and 24.6% and 23.7%
- Average ER protein (%) [9]: 22.7%
- Raw data ER [9]: 476500 and 482700 and 473700
- Subtract reagent background ER [9]: 253450 and 259650 and 250650
- protein (%) ER [9]: 22.2% and 23.1% and 22.9%
- Average ER protein (%) [10]: 20.4%
- Raw data ER [10]: 453900 and 451400 and 438800
- Subtract reagent background ER [10]: 234150 and 231650 and 219050
- protein (%) ER [10]: 20.5% and 20.6% and 20.0%
- lowering of total ER protein level (MCF-7 cells, titration): over 80%
